From patent publication US20250049957A1, “CSF TRANSPORT PATHWAY FOR DELIVERY OF AGENTS TO INNER EAR” (University of Rochester, priority 2021, published 2025)
Entries after “also recorded” stand apart in the source; their conditions may differ.

What was measured:
[1] = mouse, in vivo
Procedure: Briefly, mice were anesthetized with a mixture of Ketamine/Xylazine (100 mg/kg, 10 mg/kg, respectively), after depth of anesthesia was confirmed by the cessation of reflexes, the incision area was properly shaved and sterilized with the aid of ethanol 70% swabs (Vitrex Medical A/S Herlev, DK), followed by iodine solution (Povidone Iodine 7.5% Henry Schein, Melville, NY, USA) applicated using cotton swabs. Before the onset of surgery, analgesics were applied, Lidocaine (0.05 ml, 0.2 mg/ml) was applied in the incision site and Buprenorphine (0.05 mg/kg) injected subcutaneously for post-surgical analgesia. After performing the skin incision around the occipital crest, the neck muscles were separated to reveal the CM underneath. […]
Immediately after the CM cannulation procedure, animals were moved to MRI scanner and head movement during scanning was minimized by restraining the animals on an MR-compatible stereotactic holder with ear bars. Body temperature was maintained at 37±0.5° C. with a thermostatically controlled waterbed and monitored, along with the respiratory rate by an MR compatible remote monitoring system (SA Instruments, NY, USA). […] Every 3D-CISS image was calculated as a maximum intensity projection from 4 realigned 3D-TrueFISP volumes with 4 orthogonal phase encoding directions (TR/TE 3.9/1.95 ms, Nex 2, FA 50°, FOV 19.2×12.8×12.8 mm, Matrix 192×128×128, BW 150 kHz). […]

[2] = CT live imaging of CSF tracer after intracisternal infusion, with dispersion model; format: in vivo, mouse
Procedure: During the CM cannulation procedure a custom-made head bar was fixed on the top of the animal skull. The head bar was designed to minimize undesired movements during the image acquisition (Yoshida et al., 2016), and fixed to an animal holder. […] Animal's respiration was monitored by using Biovet software. CT scans were performed with the Vector4CT system (MILabs, Utrecht, Netherlands) and scanning of the entire mouse head was performed in 4.56 min at an isotropic spatial resolution of 20 μm. The time series CT scanning protocol comprised one baseline scan (4.5 min) followed by intracisternal infusion of Omnipaque (350 mg I/ml, 1 μL/min, 10 μL, GE healthcare). Scans continued over 6 measurements (30 min) after intracisternal infusion of Omnipaque.
The time-intensity data was extracted using ITK snap with the ROIs described above after background subtraction and then normalized to maximal cisterna magna intensity. Dimensions of cochlear aqueduct were measured using the #X feature in ITK snap for #four animals. Distances between ROIs were calculated using their spatial coordinates.
To solve the equation (#ref), inventors implemented a simple finite difference scheme in Python (#ref) using NumPy and Scipy (#ref). Estimation of the dispersion coefficient was achieved by minimizing the L2-norm prediction error, using Scipy (#ref) E: […]

Row | SMILES | Time activity curves for tracer influx in mice lacking aqp4 [1] | Time to reach 50 max [1] | Tracer concentration in scala vestibuli or cochlear nerve (CT) ([2]; during the 30 min of scanning) | Tracer dispersal into scala tympani (CT) ([2]; intracisternal delivery, 30 min of scanning)
1 | O=C([O-])CN1CCN(CC(=O)[O-])CCN([C@H](CO)[C@H](O)CO)CCN(CC(=O)[O-])CC1.[Gd+3] (racemic) [Gadovist, gadobutrol] | did not differ from wild type animals | significantly higher in the cochlea | – | –
2 | CC(=O)N(CC(O)CO)c1c(I)c(C(=O)NCC(O)CO)c(I)c(C(=O)NCC(O)CO)c1I (stereo not shown) [Omnipaque] | – | – | No clear rise; also recorded: no significant tracer arrives | reaches the base and middle region of the scala tympani; also recorded: moves into the base of scala tympani
